Data from patent publication US20180153890A1, “PHARMACEUTICAL COMPOSITIONS AND USE THEREOF” (Hutchison MediPharma Limited, priority 2015, published 2018).
Marks after values point to notes of the source that are not given here.

Key:
NCI-H716 tumor = assay: Anti-tumor efficacy in NCI-H716 subcutaneous xenograft model; type: in vivo; conditions: three weeks
Method: NCI-H716 cell line was purchased from ATCC (CCL-251™) and incubated in the medium of RPM11640 (Rosewell Park Memorial Institute 1640) plus 10% fetal bovine serum (FBS) at 37° C. in a 5% CO2 incubator.
BALB/c athymic male mice (6-8 weeks) were purchased from Shanghai SLAC Laboratory Animal Co. Ltd. The mice were housed under specific pathogen free conditions. They were maintained in a 12 hour light and dark cycle with the temperature at 20-25° C. and humidity of 40%-70% and given free access to Co^60 radiated-sterile diet and autoclaved sterile water. There were four mice in each cage.
Compound A was dissolved in 0.5% CMC-Na, vortexed for 1-3 min, sonicated for 15 min and stored at 4° C. Compound A was formulated at 2.0, 4.0 and 8.0 mg/mL and prepared once a week.
When NCI-H716 cells reached about 80-90% in confluence, they were detached by Trypsin-EDTA and collected after centrifugation, then suspended in serum free-medium. Each mouse was injected subcutaneously in the right lateral flank with 0.2 mL of cells suspension containing 5×10^6 tumor cells with Martrigel (1:1).
When the NCI-H716 tumors grew to around average 300 mm^3, the tumor bearing mice were randomized to vehicle and Compound A treated groups. Compound A in 0.5% CMC-Na as prepared above was orally administered to mice at 20, 40 and 80 mg/kg twice daily for three weeks, and the vehicle group received 0.5% CMC-Na orally twice daily. The dosing volume was 10 mL/kg body weight. Tumor volume (TV) was measured two times per week by caliper for length and width, and calculated using the formula: TV=width^2×length/2.
At the end of the study, tumors were harvested and tumor growth inhibition (TGI) and tumor weight inhibition (IRTW) were calculated by the following equations, where V0 were the data at day 0 (D0) (starting day) and Vt were the data at measurement day t (Dt):
TGI=[1−(Vt−V0)drug treated/(Vt−V0)vehicle]×100%
IRTW(%)=[(TWvehicle−TWtreatment)/TWvehicle]×100%
Student's t-test was used for in comparison with vehicle control. Differences were considered statistically significant at P<0.05.

NCI-H716 cells = assay: Cell viability assay on NCI-H716 (CCK-8); type: cell-based; conditions: Homo sapiens, 72 h incubation, read-out: IC50 on inhibition of NCI-H716 cells viability
Method: NCI-H716: human cecum colorectal adenocarcinoma cell line, purchased from ATCC (American Type Culture Collection).
Culture medium: RPMI 1640 containing 10% FBS.
NCI-H716 cells were diluted with RPMI-1640 medium containing 10% FBS. 90 μL of the diluted cells were added into each well of a 96-well plate so that each well contained 1×10^4 cells. The cells were subsequently incubated at 37° C., 5% CO2 overnight.
Test compound dissolved in DMSO was diluted to 30, 10, 3.33, 1.11, 0.37, 0.12, 0.04, 0.01 μM with serum free RPMI-1640 medium containing 5% DMSO. Then 10 μL of the diluted compound was added into the above 90 μL cell cultures (final concentration of DMSO in the reaction mixture should be 0.5%), and incubated at 37° C., 5% CO2 for 72 h.
10 μL of CCK-8 solution was added into cells, and incubated at 37° C., 5% CO2 for additional 1 h. The optical density of each well was measured at 450 nm and 630 nm, respectively, by Labsystems Multiskan K3.
[formula] • [OD compound]450-630: the optical density of well containing cells with compound treatment; • [OD cell]450-630: the optical density of wells containing cells without compound treatment; • [OD background]450-630: the optical density of wells containing culture medium only.
IC50: IC50 is calculated based on the inhibition curve fitted by XL-Fit 2.0 software.

[1] = 20 mg/kg bid oral, end of study

Cc1cc2cc(Oc3ccnc(Nc4cccc(CS(=O)(=O)NCCN(C)C)c4)n3)ccc2[nH]1 [Compound A, N-(2-(dimethylamino)ethyl)-1-(3-((4-((2-methyl-1H-indol-5-yl)oxy)pyrimidin-2-yl)amino)phenyl)-methanesulfonamide]
IRTW (tumor weight inhibition) (NCI-H716 tumor; [1]): 49.9* % | TGI (tumor growth inhibition) (NCI-H716 tumor; [1]): 57.1% | TGI (tumor growth inhibition) (NCI-H716 tumor; 40 mg/kg bid oral, end of study): 73.9% | TGI (tumor growth inhibition) (NCI-H716 tumor; 80 mg/kg bid oral, end of study): 80.0% | clinical signs of toxicity (NCI-H716 tumor; treated mice, 20, 40 and 80 mg/kg bid oral): No clinical signs of toxicity were observed | IC50 (NCI-H716 cells): 0.159 µM
